The source made the active and inactive calls. No cut-off for these calls is given here.
What was measured:
[1] = target: RNA-directed RNA polymerase (Hepacivirus hominis, UniProt O39930); assay: Displacement of [alpha-32P]GTP from recombinant HCV NS5B RNA dependent RNA polymerase
Vero = assay: Cytotoxicity against vero cells by MTS metabolic assay; assay type: functional, cell-based; conditions: Chlorocebus sabaeus
NS3 = NS3 (Hepatitis C virus, UniProt A3EZJ3); assay: Inhibition of HCV NS3 helicase; parameters: species or system Hepacivirus hominis
Chain of NS3 (A3EZJ3 whole entry): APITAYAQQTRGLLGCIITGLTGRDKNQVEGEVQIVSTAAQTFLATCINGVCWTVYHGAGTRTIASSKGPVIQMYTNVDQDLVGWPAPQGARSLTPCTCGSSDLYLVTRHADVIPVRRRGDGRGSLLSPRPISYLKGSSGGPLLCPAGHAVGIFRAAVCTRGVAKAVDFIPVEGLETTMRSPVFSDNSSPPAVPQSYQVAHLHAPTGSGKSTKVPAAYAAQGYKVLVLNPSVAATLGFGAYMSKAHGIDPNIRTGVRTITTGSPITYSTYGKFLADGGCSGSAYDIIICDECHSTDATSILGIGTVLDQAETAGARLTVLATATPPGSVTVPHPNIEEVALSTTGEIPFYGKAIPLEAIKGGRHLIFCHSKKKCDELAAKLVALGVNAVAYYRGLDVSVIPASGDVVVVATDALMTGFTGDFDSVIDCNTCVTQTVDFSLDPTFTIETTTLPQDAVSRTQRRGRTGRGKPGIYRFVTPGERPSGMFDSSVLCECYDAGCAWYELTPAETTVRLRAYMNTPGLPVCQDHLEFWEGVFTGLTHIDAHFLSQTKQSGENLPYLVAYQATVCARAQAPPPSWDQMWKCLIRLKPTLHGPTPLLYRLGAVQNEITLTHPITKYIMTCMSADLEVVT

[2] = target: T1, DNA polymerase subunit gamma-1 (Homo sapiens) (UniProt P54098); assay: Inhibitory activity against human mitochondrial DNA polymerase gamma upto 50 uM
T1 sequence (whole entry): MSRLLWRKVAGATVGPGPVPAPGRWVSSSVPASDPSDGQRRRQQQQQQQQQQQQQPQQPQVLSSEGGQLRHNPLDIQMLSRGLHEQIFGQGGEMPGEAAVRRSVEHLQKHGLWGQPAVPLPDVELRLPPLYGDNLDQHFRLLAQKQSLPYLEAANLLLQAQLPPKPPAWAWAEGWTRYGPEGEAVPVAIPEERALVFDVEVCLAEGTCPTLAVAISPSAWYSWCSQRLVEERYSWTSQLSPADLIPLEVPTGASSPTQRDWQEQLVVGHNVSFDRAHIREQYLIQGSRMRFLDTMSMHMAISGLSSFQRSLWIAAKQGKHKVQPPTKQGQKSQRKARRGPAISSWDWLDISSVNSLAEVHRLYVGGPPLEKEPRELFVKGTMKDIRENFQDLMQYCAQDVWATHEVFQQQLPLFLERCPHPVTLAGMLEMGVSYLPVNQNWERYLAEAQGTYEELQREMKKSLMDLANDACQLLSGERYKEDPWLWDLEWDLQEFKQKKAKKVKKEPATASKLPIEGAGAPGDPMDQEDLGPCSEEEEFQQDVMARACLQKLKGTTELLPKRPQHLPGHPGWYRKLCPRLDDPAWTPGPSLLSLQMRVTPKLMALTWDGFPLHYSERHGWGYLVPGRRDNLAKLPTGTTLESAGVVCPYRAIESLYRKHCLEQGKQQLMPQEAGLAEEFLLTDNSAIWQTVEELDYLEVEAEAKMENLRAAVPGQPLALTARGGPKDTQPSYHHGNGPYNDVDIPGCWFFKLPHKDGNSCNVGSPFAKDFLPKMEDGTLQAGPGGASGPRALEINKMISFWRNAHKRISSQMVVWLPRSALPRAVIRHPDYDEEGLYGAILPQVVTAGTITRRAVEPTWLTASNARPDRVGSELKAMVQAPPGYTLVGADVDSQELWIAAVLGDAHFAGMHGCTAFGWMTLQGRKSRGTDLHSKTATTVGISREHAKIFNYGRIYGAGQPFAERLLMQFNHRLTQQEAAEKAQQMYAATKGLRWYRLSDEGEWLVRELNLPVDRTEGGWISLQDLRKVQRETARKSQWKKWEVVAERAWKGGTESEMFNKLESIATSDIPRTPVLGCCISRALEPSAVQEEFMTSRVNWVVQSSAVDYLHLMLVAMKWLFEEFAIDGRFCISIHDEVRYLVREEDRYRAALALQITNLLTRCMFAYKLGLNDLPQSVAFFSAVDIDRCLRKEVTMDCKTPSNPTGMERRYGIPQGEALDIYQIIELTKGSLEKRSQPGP

[3] = target: Human immunodeficiency virus type 1 reverse transcriptase (Human immunodeficiency virus 1, UniProt Q72547); assay: Inhibition of HIV reverse transcriptase
Huh-7 = assay: Cytotoxicity against Huh7 cells by MTS metabolic assay; assay type: functional, cell-based; conditions: Homo sapiens

Chain of RNA-directed RNA polymerase (O39930 whole entry): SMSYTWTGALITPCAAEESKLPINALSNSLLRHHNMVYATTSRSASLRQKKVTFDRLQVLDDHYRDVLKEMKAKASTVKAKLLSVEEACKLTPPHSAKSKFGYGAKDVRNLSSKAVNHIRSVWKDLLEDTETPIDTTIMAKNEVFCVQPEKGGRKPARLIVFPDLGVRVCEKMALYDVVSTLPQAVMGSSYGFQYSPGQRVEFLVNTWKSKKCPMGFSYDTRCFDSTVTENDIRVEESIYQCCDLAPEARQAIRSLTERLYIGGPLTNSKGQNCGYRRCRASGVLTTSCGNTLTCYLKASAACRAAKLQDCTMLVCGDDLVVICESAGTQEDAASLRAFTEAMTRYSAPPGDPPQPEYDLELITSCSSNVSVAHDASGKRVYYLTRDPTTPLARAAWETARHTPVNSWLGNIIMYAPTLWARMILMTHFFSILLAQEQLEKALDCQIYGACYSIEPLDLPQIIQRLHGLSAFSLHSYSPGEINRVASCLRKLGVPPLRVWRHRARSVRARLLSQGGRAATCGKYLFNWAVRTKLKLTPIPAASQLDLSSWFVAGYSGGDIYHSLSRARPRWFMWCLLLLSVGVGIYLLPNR

IC50 [1] [nM]	SMILES	also measured
170	CCC[C@]1(CC(=O)O)OCCc2c1sc1c(C)ccc(C#N)c21	–
320	CCCC1(CC(=O)O)OCCc2c1sc1c(C)ccc(C#N)c21 (stereo not drawn)	–
130	CCCC1(CC(=O)O)OCCc2c1sc1c(C)cc(F)c(C#N)c21 (stereo not drawn)	–
5360	CCC[C@@]1(CC(=O)O)OCCc2c1sc1c(C)cc(F)c(C#N)c21	–
50	CCC[C@]1(CC(=O)O)OCCc2c1sc1c(C)cc(F)c(C#N)c21	IC50 (Vero): > 75000 nM; IC50 (NS3): > 75000 nM; Activity [2]: inactive; IC50 [3]: > 100000 nM; IC50 (Huh-7): > 75000 nM
2850	CCC[C@@]1(CC(=O)O)OCCc2c1sc1c(C)ccc(C#N)c21	–
190	CCCC1(CC(=O)O)OCCc2c1sc1c(C)ccc(Br)c21 (stereo not drawn)	–

More lines, now with the values behind:

SMILES	IC50 [1] [nM]	also measured
CCCC1(CC(=O)O)OCCc2c1oc1c(Cl)ccc(Cl)c21 (stereo not drawn)	1490	–
CCCC1(CC(=O)O)OCCc2c1oc1ccccc21 (stereo not drawn)	> 20000	–
CCCC1(CC(=O)O)OCCc2c1sc1ccccc21 (stereo not drawn)	> 20000	–
CC1(CC(=O)O)OCCc2c1oc1c(Cl)ccc(Cl)c21 (stereo not drawn)	> 20000	–
CCCCC1(CC(=O)O)OCCc2c1sc1c(Cl)ccc(Cl)c21 (stereo not drawn)	750	–
CCCC1(CC(=O)O)OCCc2c1sc1c(C)cc(F)cc21 (stereo not drawn)	> 20000	–
CCC1(CC(=O)O)OCCc2c1sc1c(Cl)ccc(Cl)c21 (stereo not drawn)	1900	–
CCCC1(CC(=O)O)OCCc2c1sc1c(Cl)ccc(Cl)c21 (stereo not drawn)	140	–
CC1(CC(=O)O)OCCc2c1sc1c(Cl)ccc(Cl)c21 (stereo not drawn)	17600	–
CCC1(CC(=O)O)OCCc2c1oc1c(Cl)ccc(Cl)c21 (stereo not drawn)	16300	–
CCCCC1(CC(=O)O)OCCc2c1oc1c(Cl)ccc(Cl)c21 (stereo not drawn)	4460	–
